Measurements: article PMC8152971, “Valeriana rigida Ruiz & Pav. Root Extract: A New Source of Caffeoylquinic Acids with Antioxidant and Aldose Reductase Inhibitory Activities” (Foods, 2021)
“And” between values parts separate entries of the source, which are not always exact repeats. Equal entries are not always repeated. Where two headings read alike, the source gives them in different places. Each block holds one molecule with its values, some of them ahead of it.

Experiments:
[1] = molecular target: T1, rat lens AR homogenate (aldose reductase) (Rattus norvegicus, UniProt P07943); assay: AR inhibition assay; type: biochemical, Sprague–Dawley rats
T1 construct: the lenses were removed from the eyes, ground in a mortar; from tissue; host or cells: lens of Sprague–Dawley rats
Method: The eyes of 10-week Sprague–Dawley rats (250–280 g) were removed and frozen at −70 °C before use. Thereafter, the lenses were removed from the eyes, ground in a mortar (precooled at −70 °C), and extracted using 0.1 M PBS of pH 6.2 (around 0.5 mL of buffer per two frozen rat lenses).
The AR inhibitory activities of the extract and the separated compounds were determined as described previously. […] Next, the reaction was initiated by adding 20 µL of the substrate (DL-glyceraldehyde dimmer, 25 mM in 0.1 M PBS of pH 7.0), and the values were further measured for 6 min at 340 nm (OD340) using an Epoch microplate spectrophotometer (BioTek Instruments, Winooski, VT, USA). […] The DMSO used for sample preparation was less than 0.4% (v/v) in the reaction system.

[2] = Hypochlorous acid (HOCl) scavenging assay
Method: The HOCl scavenging assay was adapted from a previous study using 1,8-diaminonaphthalene as a fluorescence probe for hypochlorite. […] Next, the fluorescence intensity (λex = 360 ± 20 nm, λem = 460 ± 20 nm) was immediately measured using a microplate fluorescence reader (FLx800; Bio-Tek, Winooski, VT, USA). Trolox (final concentration 25–100 µg/mL) was used as a reference antioxidant.

[3] = read-out: AR inhibitory Activity Inhibition (%)

inhibition at 25 µM ([1]; 25 µM, read-out: AR inhibitory Activity Inhibition (%)): 12.3 ± 4.22% | inhibition at 50 µM ([1]; 50 µM, read-out: AR inhibitory Activity Inhibition (%)): 24 ± 0.63% | inhibition at 100 µM ([1]; 100 µM, read-out: AR inhibitory Activity Inhibition (%)): 36.3 ± 3.78%
SMILES: COc1ccc(-c2cc(=O)c3c(O)cc(O)cc3o2)cc1 [Acacetin (8), acacetin]

inhibition at 0.01 µg/mL [1, 3]: 21.7 ± 1.25% | inhibition at 0.02 µg/mL [1, 3]: 79.3 ± 1.35% | inhibition at 0.031 µM [1, 3]: 21.7 ± 1.25% | inhibition at 0.04 µg/mL [1, 3]: 91.8 ± 1.84% | inhibition at 0.063 µM [1, 3]: 79.3 ± 1.35% | inhibition at 0.125 µM [1, 3]: 91.8 ± 1.84%
SMILES: CC(/C=C1\SC(=S)N(CC(=O)O)C1=O)=C\c1ccccc1 [Epalrestat, epalrestat, reference compound]

SMILES: O=c1c(O)c(-c2ccc(O)c(O)c2)oc2cc(O)cc(O)c12 [Quercetin, quercetin, reference compound]
inhibition at 1.889 µg/mL [1, 3]: 34.8 ± 0.51% | inhibition at 3.778 µg/mL [1, 3]: 46 ± 4.49% | inhibition at 6.25 µM [1, 3]: 34.8 ± 0.51% | inhibition at 7.556 µg/mL [1, 3]: 67 ± 3.22% | inhibition at 12.5 µM [1, 3]: 46 ± 4.49% | inhibition at 25 µM [1, 3]: 67 ± 3.22%

SMILES: C[C@@H]1O[C@@H](Oc2c(-c3ccc(O)c(O)c3)oc3cc(O)cc(O)c3c2=O)[C@H](O)[C@H](O)[C@H]1O [Quercitrin, quercitrin, reference compound]
IC50 ([1]; AR Inhibitory Activity IC50, rat lens AR): 103 nM | IC50 ([1]; AR inhibitory Activity IC50, rat lens AR): 102 nM and 100 nM | inhibition at 0.056 µg/mL [1, 3]: 62.33 ± 0.44% | inhibition at 0.063 µM [1, 3]: 32.6 ± 2.7% | inhibition at 0.112 µg/mL [1, 3]: 74.6 ± 1.11% | inhibition at 0.125 µM [1, 3]: 62.33 ± 0.44% | inhibition at 0.25 µM [1, 3]: 74.6 ± 1.11%

HOCl Scavenging Activity IC50 ([2]; linear regression): 8.52 µg/mL | IC50 ([2]; linear regression): 34000 nM
SMILES: Cc1c(C)c2c(c(C)c1O)CCC(C)(C(=O)O)O2 (stereo not drawn) [Trolox, reference compound]
HOCl Scavenging Activity Inhibition (%) ([2]; 6.25 µg/mL): 40.76 ± 0.39% | HOCl Scavenging Activity Inhibition (%) ([2]; 12.5 µg/mL): 66.53 ± 2.54% | HOCl Scavenging Activity Inhibition (%) ([2]; 25 µM): 40.76 ± 0.39% | HOCl Scavenging Activity Inhibition (%) ([2]; 25 µg/mL): 97.07 ± 5.45% | HOCl Scavenging Activity Inhibition (%) ([2]; 50 µM): 66.53 ± 2.54% | HOCl Scavenging Activity Inhibition (%) ([2]; 100 µM): 97.07 ± 5.45%
